Source: ChEMBL document CHEMBL1127009, “Fibrinogen receptor antagonists containing a gamma-lactam Gly-Asp isostere” (Bioorg Med Chem Lett, 1993)
pIC50: −log10 of the molar value. Peptide text beside a SMILES is read from it. * marks the point of attachment. Cbz = O=C(OCc1ccccc1)*

How the values were obtained:
[1] = biological target: Integrin alpha-IIb/beta-3 (Homo sapiens, UniProt P05106+P08514); experiment: Inhibition of fibrinogen binding to purified immobilized alpha IIb beta-3 integrin isolated from membranes of human blood platelets.
[2] = species: Homo sapiens; experiment: Inhibition of ADP-induced aggregation of human blood platelets in the presence of fibrinogen.; assay type: functional

Chain of Integrin alpha-IIb/beta-3 (P05106 27-788 limits assumed): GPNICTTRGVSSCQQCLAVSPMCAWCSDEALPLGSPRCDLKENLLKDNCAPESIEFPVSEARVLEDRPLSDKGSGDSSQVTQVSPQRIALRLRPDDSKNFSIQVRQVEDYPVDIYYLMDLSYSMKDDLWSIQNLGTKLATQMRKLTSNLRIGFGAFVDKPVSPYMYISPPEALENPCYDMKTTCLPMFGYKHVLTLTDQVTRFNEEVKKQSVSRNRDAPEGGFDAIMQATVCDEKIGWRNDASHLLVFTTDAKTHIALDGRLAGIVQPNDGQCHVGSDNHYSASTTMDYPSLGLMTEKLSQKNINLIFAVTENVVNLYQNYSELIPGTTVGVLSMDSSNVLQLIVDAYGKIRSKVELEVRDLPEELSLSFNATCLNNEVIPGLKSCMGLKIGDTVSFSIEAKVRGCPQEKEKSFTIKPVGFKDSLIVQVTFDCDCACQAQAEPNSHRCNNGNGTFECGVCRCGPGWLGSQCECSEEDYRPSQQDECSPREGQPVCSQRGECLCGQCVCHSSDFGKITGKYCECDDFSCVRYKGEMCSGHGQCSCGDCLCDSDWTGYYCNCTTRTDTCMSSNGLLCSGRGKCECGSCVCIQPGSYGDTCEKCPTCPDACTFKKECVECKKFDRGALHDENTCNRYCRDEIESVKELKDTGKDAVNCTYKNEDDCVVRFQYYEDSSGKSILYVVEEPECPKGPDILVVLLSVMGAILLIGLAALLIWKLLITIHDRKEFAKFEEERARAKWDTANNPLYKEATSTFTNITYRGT
Chain of Integrin alpha-IIb/beta-3 (P08514 32-887 limits assumed): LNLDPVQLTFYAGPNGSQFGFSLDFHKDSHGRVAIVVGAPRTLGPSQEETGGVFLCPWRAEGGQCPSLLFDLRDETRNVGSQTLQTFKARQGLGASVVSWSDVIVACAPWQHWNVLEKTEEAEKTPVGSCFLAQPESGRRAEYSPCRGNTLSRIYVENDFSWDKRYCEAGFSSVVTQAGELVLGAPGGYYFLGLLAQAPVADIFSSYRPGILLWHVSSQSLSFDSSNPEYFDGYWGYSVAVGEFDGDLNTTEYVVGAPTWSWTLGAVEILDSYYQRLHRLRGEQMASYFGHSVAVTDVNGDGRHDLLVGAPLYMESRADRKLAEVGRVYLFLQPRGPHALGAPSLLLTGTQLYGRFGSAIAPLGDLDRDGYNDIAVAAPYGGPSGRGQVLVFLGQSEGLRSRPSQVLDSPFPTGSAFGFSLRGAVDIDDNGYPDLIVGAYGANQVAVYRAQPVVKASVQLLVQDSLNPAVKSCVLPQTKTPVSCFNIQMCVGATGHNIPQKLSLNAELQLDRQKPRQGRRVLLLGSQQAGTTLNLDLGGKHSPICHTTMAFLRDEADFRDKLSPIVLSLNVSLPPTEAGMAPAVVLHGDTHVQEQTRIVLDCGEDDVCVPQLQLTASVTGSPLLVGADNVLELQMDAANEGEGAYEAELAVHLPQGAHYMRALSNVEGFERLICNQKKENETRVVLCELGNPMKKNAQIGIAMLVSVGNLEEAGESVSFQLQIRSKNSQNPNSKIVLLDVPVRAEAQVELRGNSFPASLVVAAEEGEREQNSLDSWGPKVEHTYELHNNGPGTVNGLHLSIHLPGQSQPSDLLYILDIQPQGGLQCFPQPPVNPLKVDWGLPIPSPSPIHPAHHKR
Chain of Integrin alpha-IIb/beta-3 (P08514 891-1039 limits assumed): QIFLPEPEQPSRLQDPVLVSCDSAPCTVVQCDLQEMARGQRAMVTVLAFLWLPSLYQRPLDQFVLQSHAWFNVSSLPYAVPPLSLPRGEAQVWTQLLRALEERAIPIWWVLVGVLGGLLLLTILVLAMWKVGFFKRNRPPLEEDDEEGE

pIC50 [1] | pIC50 [2] | Compound
< 4.00 | < 4.00 | COC(=O)[C@H](Cc1ccccc1)NC(=O)[C@H](CC(=O)O)NC(=O)[C@@H](C)NC(=O)[C@H](CCCN=C(N)N)NC(=O)OCc1ccccc1
6.11 | 4.07 | COC(=O)[C@H](Cc1ccccc1)NC(=O)[C@H](CC(=O)O)N1CC[C@H](NC(=O)[C@H](CCCN=C(N)N)NC(=O)OCc2ccccc2)C1=O
5.97 | 5.00 | N=C(N)NCCC[C@H](NC(=O)OCc1ccccc1)C(=O)N[C@H]1CCN([C@@H](CC(=O)O)C(=O)N[C@@H](Cn2ccc3ccccc32)C(=O)O)C1=O
8.30 | 7.00 | N=C(N)c1ccc(CC(=O)N[C@H]2CCN([C@@H](CC(=O)O)C(=O)N[C@@H](CC34CC5CC(CC(C5)C3)C4)C(=O)O)C2=O)cc1
5.91 | 4.60 | COC(=O)[C@H](Cn1ccc2ccccc21)NC(=O)[C@H](CC(=O)O)N1CC[C@H](NC(=O)[C@H](CCCN=C(N)N)NC(=O)OCc2ccccc2)C1=O
7.70 | 6.13 | N=C(N)c1ccc(CC(=O)N[C@H]2CCN([C@@H](CC(=O)O)C(=O)N[C@@H](Cn3ccc4ccccc43)C(=O)O)C2=O)cc1
7.70 | 6.44 | COC(=O)[C@H](CC12CC3CC(CC(C3)C1)C2)NC(=O)[C@H](CC(=O)O)N1CC[C@H](NC(=O)Cc2ccc(C(=N)N)cc2)C1=O
6.92 | 5.36 | COC(=O)[C@H](Cn1ccc2ccccc21)NC(=O)[C@H](CC(=O)O)N1CC[C@H](NC(=O)Cc2ccc(C(=N)N)cc2)C1=O
< 4.00 | < 4.00 | N=C(N)NCCC[C@H](NC(=O)OCc1ccccc1)C(=O)N[C@@H]1CCN([C@@H](CC(=O)O)C(=O)N[C@@H](Cc2ccccc2)C(=O)O)C1=O
< 4.00 | < 4.00 | CC(C)[C@H](NC(=O)[C@@H](CC(=O)O)N1CC[C@H](NC(=O)Cc2ccc(C(=N)N)cc2)C1=O)C(=O)O
4.11 | < 4.00 | COC(=O)[C@H](Cc1ccccc1)NC(=O)[C@H](CC(=O)O)NC(=O)[C@H](C)NC(=O)[C@H](CCCNC(=N)N)NC(=O)OCc1ccccc1
7.40 | 6.44 | CC(C)C[C@H](NC(=O)[C@H](CC(=O)O)N1CC[C@H](NC(=O)Cc2ccc(C(=N)N)cc2)C1=O)C(=O)O
8.70 | 7.40 | N=C(N)c1ccc(CC(=O)N[C@H]2CCN([C@@H](CC(=O)O)C(=O)N[C@H](C(=O)O)C34CC5CC(CC(C5)C3)C4)C2=O)cc1
6.29 | 5.40 | COC(=O)[C@H](CC12CC3CC(CC(C3)C1)C2)NC(=O)[C@H](CC(=O)O)N1CC[C@H](NC(=O)[C@H](CCCN=C(N)N)NC(=O)OCc2ccccc2)C1=O
6.25 | 4.89 | CC(C)C[C@H](NC(=O)[C@H](CC(=O)O)N1CC[C@H](NC(=O)[C@H](CCCN=C(N)N)NC(=O)OCc2ccccc2)C1=O)C(=O)O
6.57 | 4.89 | COC(=O)[C@H](Cc1ccccc1)NC(=O)[C@H](CC(=O)O)NC(=O)CNC(=O)[C@H](CCCN=C(N)N)NC(=O)OCc1ccccc1 (Cbz-RGDF-OMe)
6.96 | 5.51 | CC(C)[C@H](NC(=O)[C@H](CC(=O)O)NC(=O)CNC(=O)[C@H](CCCN=C(N)N)NC(=O)OCc1ccccc1)C(=O)O (Cbz-RGDV-OH)
